In patent publication US20240246918A1, “COMPOUNDS AND COMPOSITIONS AS EIF4E INHIBITORS AND THE USES THEREOF” (Ribometrix, Inc., priority 2022, published 2024):
Read-outs that look alike come from different tables or passages of the source.

How the values were obtained:
[1] = molecular target: T1, human eIF4E protein (Homo sapiens, UniProt P06730); assay: Biochemical competitive binding assay (TR-FRET competition, EDA-m7GDP-ATTO-647N probe); details: read-out: hEIF4E TR-FRET IC50
T1 construct: purchased Novus NBP-45314
T1 sequence (P06730 whole entry): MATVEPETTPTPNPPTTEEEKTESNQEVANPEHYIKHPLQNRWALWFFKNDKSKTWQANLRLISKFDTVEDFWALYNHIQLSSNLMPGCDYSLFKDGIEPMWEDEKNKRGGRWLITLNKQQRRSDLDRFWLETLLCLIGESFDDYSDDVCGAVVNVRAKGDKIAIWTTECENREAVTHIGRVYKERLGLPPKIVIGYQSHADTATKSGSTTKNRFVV
Method in brief: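 IC50 values come from 4-parameter fits of the normalized 665/620 nm TR-FRET ratio. Compound was first incubated 15 min with 4 nM recombinant His-eIF4E bound to 2.5 nM Eu-anti-His antibody, then 15 min with 5 nM m7GDP-ATTO-647N tracer, in pH 7.5 HEPES buffer with 100 mM KCl, Tween-20 and BSA.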

[2] = system: cyclin D1 protein levels in COLO 205 cells; assay: Cyclin D1 cellular inhibition assay (HTRF, 6 hours); assay type: cell-based; details: 6 hours of compound treatment, Cyclin D1 protein levels by HTRF, read-out: COLO 205 6 h Cyclin D1 TR-FRET IC50
Method: The effect of compound treatment on cyclin D1 protein levels in COLO 205 cells was assessed, as follows. Test compound plates were prepared with a Tecan D300e Digital Dispenser as 11-point concentration-response curves with a final DMSO concentration of 1%. COLO 205 (ATCC, CCL-222) colorectal tumor cells were seeded to assay-ready plates in RPMI-1640 medium supplemented with 10% FBS at 20,000 cells in a volume of 6 microliters per well. After 6 hours of compound treatment, cells were lysed and Cyclin D1 protein levels were assessed by an HTRF assay (PerkinElmer #64CYCD1ITPEG), according to the manufacturer's protocol. Time-resolved fluorescence was measured using a Clariostar Plus microplate reader (BMG Labtech) or equivalent. After normalization to the average of DMSO control and maximum inhibition control wells, concentration-response data were plotted and standard 4-parameter curve fitting (GraphPad Prism v9.4.1) was utilized to determine IC50 values.

[3] = system: COLO 205 colorectal tumor cells; assay: Tumor cell viability inhibition assay (CellTiter-Glo 2.0, 72 hours); assay type: cell-based; details: COLO 205 cell viability
Method in brief: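 IC50 derived by 4-parameter fitting after normalizing luminescence to DMSO and max-inhibition wells. Compounds tested as 11 concentrations in 4-fold steps on COLO 205 cells seeded at 1500 per well in RPMI-1640/10% FBS; ATP content measured with CellTiter-Glo 2.0 after 72 h.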

Row | SMILES | IC50 [1] [µM] | IC50 ([2]; Homo sapiens, COLO 205, 6 h) [µM] | IC50 ([3]; Homo sapiens, COLO 205, 72 h) [µM] | IC50 [2] [µM] | IC50 [3] [µM]
1 | Cc1cc(-c2cc(Cl)ccc2OCCn2c(C)nc3c(c2=O)C[C@H](N(C)[C@H]2CC[C@](C)(O)CC2)CC3)c2scc(C(=O)NS(C)(=O)=O)c2n1 (single isomer, unassigned) [Compound 207] | < 0.1 | > 20 | > 20 |  | 
2 | COc1cc(CN(C)C2CCc3nc(C)n(CCOc4ccc(Cl)cc4-c4cc(C)nc5c(C(=O)O)csc45)c(=O)c3C2)ccn1 (single isomer, unassigned) [Compound 217] | < 0.1 | < 5 | < 5 |  | 
3 | COc1cc(CN(C)C2CCc3nc(C)n(CCOc4ccc(Cl)cc4-c4cc(C)nc5c(C(=O)O)csc45)c(=O)c3C2)ccn1 (single isomer, unassigned) [Compound 218] | < 0.1 |  |  | < 5 | 5 to 20
4 | Cc1cc(-c2cc(Cl)ccc2OCCn2c(C)nc3c(c2=O)C[C@H](N(C)[C@H]2CC[C@@](C)(O)CC2)CC3)c2scc(C(=O)O)c2n1 (single isomer, unassigned) [Compound 224] | < 0.1 | > 20 | > 20 |  | 
5 | Cc1cc(-c2cc(Cl)ccc2OCCn2c(C)nc3c(c2=O)C[C@H](N(C)[C@H]2CC[C@](C)(O)CC2)CC3)c2scc(C(=O)O)c2n1 (single isomer, unassigned) [Compound 227] | < 0.1 | > 20 | > 20 |  | 
6 | Cc1cc(-c2cc(Cl)ccc2OCCn2c(C)nc3c(c2=O)CC(N(C)C2(C4CCC4)CC2)CC3)c2scc(C(=O)NS(C)(=O)=O)c2n1 (single isomer, unassigned) [Compound 231] | < 0.1 | 5 to 20 | 5 to 20 |  | 
7 | Cc1cc(-c2cc(Cl)ccc2OCCn2c(C)nc3c(c2=O)CC(N(C)C2(C4CCC4)CC2)CC3)c2scc(C(=O)NS(C)(=O)=O)c2n1 (single isomer, unassigned) [Compound 232] | < 0.1 |  |  | < 5 | < 5
8 | COC1CCN(C2CCc3nc(C)n(CCOc4ccc(Cl)cc4-c4cc(C)nc5c(C(=O)NS(C)(=O)=O)csc45)c(=O)c3C2)CC1 (single isomer, unassigned) [Compound 239] | < 0.1 | < 5 | < 5 |  | 
9 | Cc1cc(-c2cc(Cl)ccc2OCCn2c(C)nc3c(c2=O)CC(N(C)CC2CC(F)(F)C2)CC3)c2scc(C(N)=O)c2n1 (stereo not drawn) [Compound 138] | 0.1 to 0.5 | > 20 | 5 to 20 |  | 
10 | COC1CCN(C2CCc3nc(C)n(CCOc4ccc(Cl)cc4-c4cc(C)nc5c(C(=O)NC6CC(F)(F)C6)csc45)c(=O)c3C2)CC1 (stereo not drawn) [Compound 144] | 0.5 to 5 | > 20 | 5 to 20 |  | 
11 | Cc1cc(-c2cc(Cl)ccc2OCCn2c(C)nc3c(c2=O)CC(N(C)CC2CC(F)(F)C2)CC3)c2scc(C(=O)NC3CC(F)(F)C3)c2n1 (stereo not drawn) [Compound 145] | 0.5 to 5 | > 20 | 5 to 20 |  | 
12 | COC1[C@@H]2CC[C@H]1CN(C1CCc3nc(C)n(CCOc4ccc(Cl)cc4-c4cc(C)nc5c(C(=O)O)csc45)c(=O)c3C1)C2 (stereo partly drawn) [Compound 152] | < 0.1 | < 5 | < 5 |  | 
13 | Cc1cc(-c2cc(Cl)ccc2OCCn2c(C)nc3c(c2=O)CC(N2CCC(C4CC(F)(F)C4)CC2)CC3)c2scc(C(=O)O)c2n1 (stereo not drawn) [Compound 156] | < 0.1 | < 5 | < 5 |  | 
14 | Cc1cc(-c2cc(Cl)ccc2OCCn2c(C)nc3c(c2=O)CC(N(C)Cc2ccnc(N)n2)CC3)c2scc(C(=O)O)c2n1 (stereo not drawn) [Compound 158, 7-(2-(2-(6-(((2-aminopyrimidin-4-yl)methyl)(methyl)amino)-2-methyl-4-oxo-5,6,7,8-tetrahydroquinazolin-3(4H)-yl)ethoxy)-5-chlorophenyl)-5-methylthieno[3,2-b]pyridine-3-carboxylic acid] | < 0.1 | > 20 | > 20 |  | 
15 | Cc1cc(-c2cc(Cl)ccc2OCCn2c(C)nc3c(c2=O)CC(N2CCc4[nH]ncc4C2)CC3)c2scc(C(=O)O)c2n1 (stereo not drawn) [Compound 159] | < 0.1 | > 20 | > 20 |  | 

Results, then the molecule that gave them:

Row | IC50 [1] [µM] | IC50 ([2]; Homo sapiens, COLO 205, 6 h) [µM] | IC50 ([3]; Homo sapiens, COLO 205, 72 h) [µM] | IC50 [2] [µM] | IC50 [3] [µM] | SMILES
16 | < 0.1 | < 5 | < 5 |  |  | Cc1cc(-c2cc(Cl)ccc2OCCn2c(C)nc3c(c2=O)C[C@H](N(C)C[C@H]2C[C@H](C(F)(F)F)C2)CC3)c2scc(C(=O)O)c2n1 (single isomer, unassigned) [Compound 213]
17 | < 0.1 | > 20 | > 20 |  |  | Cc1cc(-c2cc(Cl)ccc2OCCn2c(C)nc3c(c2=O)C[C@H](N(C)[C@H]2CC[C@@](C)(O)CC2)CC3)c2scc(C(=O)NS(C)(=O)=O)c2n1 (single isomer, unassigned) [Compound 214]
18 | < 0.1 | > 20 | > 20 |  |  | Cc1cc(-c2cc(Cl)ccc2OCCn2c(C)nc3c(c2=O)C[C@@H](N(C)[C@H]2CC[C@@](C)(O)CC2)CC3)c2scc(C(=O)NS(C)(=O)=O)c2n1 (single isomer, unassigned) [Compound 215]
19 | < 0.1 | < 5 | < 5 |  |  | COc1cc(CN(C)C2CCc3nc(C)n(CCOc4ccc(Cl)cc4-c4cc(C)nc5c(C(=O)NS(C)(=O)=O)csc45)c(=O)c3C2)ccn1 (single isomer, unassigned) [Compound 216]
20 | < 0.1 | < 5 | < 5 |  |  | Cc1cc(-c2cc(Cl)ccc2OCCn2c(C)nc3c(c2=O)C[C@@H](N(C)C[C@H]2C[C@H](C(F)(F)F)C2)CC3)c2scc(C(=O)O)c2n1 (single isomer, unassigned) [Compound 221]
21 | < 0.1 | > 20 | > 20 |  |  | Cc1cc(-c2ccc(Cl)cc2OCCn2c(C)nc3c(c2=O)C[C@H](N(C)[C@H]2C[C@@](C)(O)C2)CC3)c2scc(C(=O)O)c2n1 (single isomer, unassigned) [Compound 229]
22 | < 0.1 | > 20 | > 20 |  |  | Cc1cc(-c2cc(Cl)ccc2OCCn2c(C)nc3c(c2=O)CC(N(C)Cc2ccc(=O)[nH]c2)CC3)c2scc(C(=O)O)c2n1 (single isomer, unassigned) [Compound 235]
23 | < 0.1 |  |  | 5 to 20 | < 5 | COC1CCN(C2CCc3nc(C)n(CCOc4ccc(Cl)cc4-c4cc(C)nc5c(C(=O)NS(C)(=O)=O)csc45)c(=O)c3C2)CC1 (single isomer, unassigned) [Compound 240]
24 | < 0.1 | < 5 | < 5 |  |  | Cc1cc(-c2cc(Cl)ccc2OCCn2c(C)nc3c(c2=O)CC(N(C)CC2CC(F)(F)C2)CC3)c2scc(C(=O)O)c2n1 (single isomer, unassigned) [Compound 258]
25 | < 0.1 | < 5 | < 5 |  |  | Cc1cc(-c2cc(Cl)ccc2OCCn2c(C)nc3c(c2=O)C[C@@H](N(C)C[C@H]2C[C@@H](C(F)(F)F)C2)CC3)c2scc(C(=O)O)c2n1 (stereo in doubt) [Compound 189]
26 | < 0.1 | < 5 | < 5 |  |  | Cc1cc(-c2cc(Cl)ccc2OCCn2c(C)nc3c(c2=O)C[C@H](N(C)C[C@H]2C[C@@H](C(F)(F)F)C2)CC3)c2scc(C(=O)O)c2n1 (stereo in doubt) [Compound 223]
27 | 0.1 to 0.5 | > 20 | 5 to 20 |  |  | COC1CCN(C2CCc3nc(C)n(CCOc4ccc(Cl)cc4-c4cc(C)nc5c(C(=O)NCC(F)F)csc45)c(=O)c3C2)CC1 (stereo not drawn) [Compound 142]
28 | 0.5 to 5 | > 20 | 5 to 20 |  |  | Cc1cc(-c2cc(Cl)ccc2OCCn2c(C)nc3c(c2=O)CC(N(C)CC2CC(F)(F)C2)CC3)c2scc(C(=O)NCC(F)F)c2n1 (stereo not drawn) [Compound 150]
29 | < 0.1 | < 5 | < 5 |  |  | COC1CCN(C2Cc3c(cc(C)n(CCOc4ccc(Cl)cc4-c4cc(C)nc5c(C(=O)O)csc45)c3=O)C3(CC3)C2)CC1 (stereo not drawn) [Compound 151]
30 | < 0.1 | 5 to 20 | 5 to 20 |  |  | Cc1cc(-c2cc(Cl)ccc2OCCn2c(C)nc3c(c2=O)CC(NCC2CC(F)(F)C2)CC3)c2scc(C(=O)O)c2n1 (stereo not drawn) [Compound 153]
31 | < 0.1 | < 5 | < 5 |  |  | COc1cc(CNC2CCc3nc(C)n(CCOc4ccc(Cl)cc4-c4cc(C)nc5c(C(=O)O)csc45)c(=O)c3C2)ccn1 (stereo not drawn) [Compound 154]
32 | < 0.1 | 5 to 20 | 5 to 20 |  |  | Cc1cc(-c2cc(Cl)ccc2OCCn2c(C)nc3c(c2=O)CC(N2CCc4ncncc4C2)CC3)c2scc(C(=O)O)c2n1 (stereo not drawn) [Compound 157]
33 | < 0.1 | < 5 | < 5 |  |  | Cc1cc(-c2cc(Cl)ccc2OCCn2c(C)nc3c(c2=O)CC(N2CCc4cc(C(F)(F)F)ccc4C2)CC3)c2scc(C(=O)O)c2n1 (stereo not drawn) [Compound 160]
